The text below walks through data of ChEMBL document CHEMBL4823295, “Design, synthesis and preliminary bioactivity evaluation of bitopic benzopyranomorpholine analogues as selective dopamine D3 receptor ligands as anti-drug addiction therapeutic agents” (Bioorg Med Chem Lett, 2021).

Each structure is given as a SMILES string. Calls of active or inactive are those of the source. No cut-off for these calls is given here.

Data set [1] can be described thus: Toxicity in naloxone-induced withdrawal symptoms in morphine-dependent mouse model assessed as slow crawling at 50 mg/kg, ip administered 60 mins prior to naloxone injection. The data set is classed as organism-based. The settings on record: in vivo, 1 h.
A short description of data set [2]: Toxicity in naloxone-induced withdrawal symptoms in morphine-dependent mouse model assessed as inability to bounce at 50 mg/kg, ip administered 60 mins prior to naloxone injection. It is filed as organism-based. The settings on record: in vivo, 1 h.
Data set [3] is described as follows: Toxicity in naloxone-induced withdrawal symptoms in morphine-dependent mouse model assessed as convulsions at 50 mg/kg, ip administered 60 mins prior to naloxone injection. It is filed as organism-based. The settings on record: in vivo, 1 h.
For a further data set, the species on record is Homo sapiens. Briefly: Selectivity ratio of Ki for human D2 receptor transfected in HEK293 cell membrane to Ki for human D3 receptor transfected in HEK293 cell membrane. It is filed as cell-based.
For another data set, the target named is D(3) dopamine receptor (Homo sapiens, UniProt P35462). Nature of the data set: Displacement of [3H]spiperone from human D3 receptor transfected in HEK293 cell membrane measured after 50 mins by competitive radioligand binding analysis. The data set is classed as cell membranes. Background: Displacement assays read how much labelled ligand stays bound in the presence of the test substance.
Chain of D(3) dopamine receptor (P35462 whole entry): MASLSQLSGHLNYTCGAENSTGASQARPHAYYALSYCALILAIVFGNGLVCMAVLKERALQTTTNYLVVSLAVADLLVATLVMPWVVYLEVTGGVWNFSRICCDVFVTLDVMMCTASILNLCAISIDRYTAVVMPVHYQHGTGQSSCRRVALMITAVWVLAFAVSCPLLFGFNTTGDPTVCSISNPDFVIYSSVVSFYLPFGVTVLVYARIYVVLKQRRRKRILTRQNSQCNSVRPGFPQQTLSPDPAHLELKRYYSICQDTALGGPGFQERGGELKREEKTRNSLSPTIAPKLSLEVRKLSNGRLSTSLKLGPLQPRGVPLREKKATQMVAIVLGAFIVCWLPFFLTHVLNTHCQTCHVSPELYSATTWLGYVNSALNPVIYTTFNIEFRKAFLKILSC

For a further data set, the target named is D(2) dopamine receptor (Homo sapiens, UniProt P14416). Nature of the data set: Displacement of [3H]spiperone from human D2 receptor transfected in HEK293 cell membrane measured after 50 mins by competitive radioligand binding analysis. The data set is classed as cell membranes.
Chain of D(2) dopamine receptor (P14416 whole entry): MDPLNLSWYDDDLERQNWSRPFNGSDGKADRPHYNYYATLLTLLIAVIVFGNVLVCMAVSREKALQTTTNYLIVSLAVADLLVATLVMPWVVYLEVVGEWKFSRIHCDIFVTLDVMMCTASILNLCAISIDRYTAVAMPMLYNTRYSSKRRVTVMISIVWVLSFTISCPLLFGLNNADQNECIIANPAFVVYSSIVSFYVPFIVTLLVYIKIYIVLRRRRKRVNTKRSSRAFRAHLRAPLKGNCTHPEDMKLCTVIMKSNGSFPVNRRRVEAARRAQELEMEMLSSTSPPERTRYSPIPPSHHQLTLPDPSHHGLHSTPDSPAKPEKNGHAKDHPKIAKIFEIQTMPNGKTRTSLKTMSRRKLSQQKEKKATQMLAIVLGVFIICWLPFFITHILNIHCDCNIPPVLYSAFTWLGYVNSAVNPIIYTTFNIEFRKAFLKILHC
Data set [4] can be described thus: Toxicity in naloxone-induced withdrawal symptoms in morphine-dependent mouse model assessed as mortality at 50 mg/kg, ip administered 60 mins prior to naloxone injection. The data set is classed as organism-based. To be noted: in vivo, 1 h.
For a further data set, the system named is Mus musculus. Briefly: Anti-addiction activity in naloxone-induced withdrawal symptoms in morphine-dependent mouse model assessed as inhibition of naloxone-induced body weight loss at 50 mg/kg, ip administered 60 mins prior to naloxone injection and measured after 2 hrs of naloxone injection. It is filed as functional, organism-based. To be noted: time 3.0 hrs.

What is called Ki is the dissociation constant of the complex between target and ligand, obtained from inhibition or displacement. A low value points to tighter binding. Turning to `COc1ccc2c(c1)[C@H]1OCCN(CCCCNC(=O)c3cccs3)[C@@H]1CO2` (racemic), the Activity result in data set [1], in data set [2] and in data set [3] was “Toxic” throughout. The Ratio Ki in the data set filed under Homo sapiens was 122. The values for the Ki at D(3) dopamine receptor and on D(2) dopamine receptor were 6.58 nM and 803 nM, respectively.

`O=C(NCCCCN1CCO[C@@H]2c3ccccc3OC[C@H]21)c1ccco1` (racemic): the Activity result in data set [4] and in data set [3] was “Toxic” each time. In addition, the Ratio Ki in the data set listed under Homo sapiens is 73. Also, the inhibition constant Ki on D(3) dopamine receptor worked out at 11.7 nM; at D(2) dopamine receptor it was 853 nM. In addition, in the data set on Mus musculus, the outcome was Active.

On to `COc1ccc2c(c1)[C@H]1OCCN(CCCCNC(=O)c3ccc(Cl)cc3)[C@@H]1CO2` (racemic), for which the Activity entry in data set [4] is listed as “Toxic”. The Ratio Ki in the data set filed under Homo sapiens is 75. Moreover, the results for the Ki on D(3) dopamine receptor and on D(2) dopamine receptor were 12.9 nM and 967 nM, respectively.
